Tests used:
Assay in all cases: Eurofins kinase selectivity profile against 380 other human recombinant kinases (Table S2)
Assay type in all cases: biochemical
[1] = molecular target: T1, 380 human recombinant protein kinases (Homo sapiens, UniProt P29322); conditions: EphA8(h), read-out: Inhibition rate
T1 construct: purchased Eurofins (Celle Lévescault)
T1 sequence (P29322 28-1005): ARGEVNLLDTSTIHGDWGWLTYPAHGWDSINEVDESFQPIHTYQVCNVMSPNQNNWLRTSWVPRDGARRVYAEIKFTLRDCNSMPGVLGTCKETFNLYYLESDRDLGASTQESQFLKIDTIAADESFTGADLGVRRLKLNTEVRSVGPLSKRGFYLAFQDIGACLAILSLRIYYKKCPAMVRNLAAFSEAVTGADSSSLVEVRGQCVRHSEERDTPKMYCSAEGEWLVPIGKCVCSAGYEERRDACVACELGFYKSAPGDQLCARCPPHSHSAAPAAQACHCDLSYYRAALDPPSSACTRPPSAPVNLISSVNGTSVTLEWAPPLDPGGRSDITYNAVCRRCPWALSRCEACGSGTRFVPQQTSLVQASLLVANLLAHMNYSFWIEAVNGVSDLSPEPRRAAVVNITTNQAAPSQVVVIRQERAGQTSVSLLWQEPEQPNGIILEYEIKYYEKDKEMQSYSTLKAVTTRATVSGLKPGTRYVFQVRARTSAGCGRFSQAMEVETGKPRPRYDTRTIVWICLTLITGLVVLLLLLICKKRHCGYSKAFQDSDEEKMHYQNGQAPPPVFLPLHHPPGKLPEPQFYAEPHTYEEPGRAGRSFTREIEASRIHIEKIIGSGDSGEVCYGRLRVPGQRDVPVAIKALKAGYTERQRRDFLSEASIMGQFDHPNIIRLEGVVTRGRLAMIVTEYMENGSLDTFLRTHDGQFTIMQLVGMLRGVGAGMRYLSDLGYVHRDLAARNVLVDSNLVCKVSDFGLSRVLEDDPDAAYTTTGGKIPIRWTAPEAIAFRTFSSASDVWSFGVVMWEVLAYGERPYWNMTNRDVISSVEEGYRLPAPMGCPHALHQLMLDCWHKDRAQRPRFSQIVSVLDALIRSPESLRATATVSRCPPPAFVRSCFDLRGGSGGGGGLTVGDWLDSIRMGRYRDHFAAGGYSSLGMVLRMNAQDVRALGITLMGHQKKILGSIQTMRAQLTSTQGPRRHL
Method in brief: (§1)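 Profiling against 380 human recombinant kinases carried out by Eurofins at various compound concentrations.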

[2] = molecular target: T2, 380 human recombinant protein kinases (Homo sapiens, UniProt Q05513); conditions: PKCζ(h), read-out: Inhibition rate
T2 construct: purchased Eurofins (Celle Lévescault)
T2 sequence (Q05513 1-592): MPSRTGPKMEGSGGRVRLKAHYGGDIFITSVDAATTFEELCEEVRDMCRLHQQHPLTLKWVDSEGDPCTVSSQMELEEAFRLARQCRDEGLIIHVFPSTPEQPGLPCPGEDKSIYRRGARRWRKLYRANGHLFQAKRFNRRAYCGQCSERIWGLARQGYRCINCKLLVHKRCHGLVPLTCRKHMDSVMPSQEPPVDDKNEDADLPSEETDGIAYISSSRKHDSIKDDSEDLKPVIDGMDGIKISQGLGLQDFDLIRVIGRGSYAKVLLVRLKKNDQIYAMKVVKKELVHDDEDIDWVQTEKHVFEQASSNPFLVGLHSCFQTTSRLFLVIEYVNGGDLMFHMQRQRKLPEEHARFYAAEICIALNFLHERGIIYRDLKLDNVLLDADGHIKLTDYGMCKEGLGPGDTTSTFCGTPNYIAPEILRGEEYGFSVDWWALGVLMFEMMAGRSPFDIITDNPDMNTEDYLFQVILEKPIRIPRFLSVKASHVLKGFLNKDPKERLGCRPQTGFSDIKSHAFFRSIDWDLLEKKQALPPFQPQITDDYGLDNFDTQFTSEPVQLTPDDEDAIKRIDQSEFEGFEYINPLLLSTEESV
Method in brief: as §1

[3] = molecular target: T3, 380 human recombinant protein kinases (Homo sapiens, UniProt Q7L7X3); conditions: TAO1(h), read-out: Inhibition rate (%)
T3 construct: purchased Eurofins (Celle Lévescault)
T3 sequence (Q7L7X3 1-1001): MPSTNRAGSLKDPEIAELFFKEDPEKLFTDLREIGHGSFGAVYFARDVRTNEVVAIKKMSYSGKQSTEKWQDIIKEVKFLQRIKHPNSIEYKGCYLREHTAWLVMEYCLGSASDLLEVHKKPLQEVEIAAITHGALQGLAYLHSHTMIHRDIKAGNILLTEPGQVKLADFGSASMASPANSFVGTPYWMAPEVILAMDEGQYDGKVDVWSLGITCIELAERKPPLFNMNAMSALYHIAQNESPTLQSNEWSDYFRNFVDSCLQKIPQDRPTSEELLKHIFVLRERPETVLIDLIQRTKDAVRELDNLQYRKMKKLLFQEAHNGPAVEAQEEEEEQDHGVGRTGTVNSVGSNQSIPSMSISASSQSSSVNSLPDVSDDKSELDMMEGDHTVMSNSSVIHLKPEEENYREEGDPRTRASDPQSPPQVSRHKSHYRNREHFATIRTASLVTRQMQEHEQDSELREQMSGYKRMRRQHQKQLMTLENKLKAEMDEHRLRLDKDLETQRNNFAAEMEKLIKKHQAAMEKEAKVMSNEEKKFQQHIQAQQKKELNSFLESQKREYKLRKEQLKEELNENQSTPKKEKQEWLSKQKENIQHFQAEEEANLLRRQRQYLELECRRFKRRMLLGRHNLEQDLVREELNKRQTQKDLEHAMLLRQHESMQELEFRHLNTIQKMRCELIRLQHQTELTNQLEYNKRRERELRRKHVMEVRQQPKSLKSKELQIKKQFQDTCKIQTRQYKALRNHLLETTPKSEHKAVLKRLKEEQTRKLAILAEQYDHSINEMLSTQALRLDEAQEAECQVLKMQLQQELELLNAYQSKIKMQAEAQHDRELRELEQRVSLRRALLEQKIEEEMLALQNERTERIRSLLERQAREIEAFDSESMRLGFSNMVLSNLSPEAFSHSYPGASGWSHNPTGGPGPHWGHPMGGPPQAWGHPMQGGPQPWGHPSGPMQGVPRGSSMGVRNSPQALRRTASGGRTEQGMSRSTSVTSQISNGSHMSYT
Method in brief: as §1

C=CC(=O)Nc1cc(-c2cc(-c3cc4c([nH]3)CCNC4=O)ccn2)ccc1OC(F)(F)F [compound 11] was tested, and the inhibition at 0.01 µM ([1]; 10 nM) was 1%, the inhibition at 0.1 µM ([1]; 100 nM) was 2% and the inhibition at 1 µM ([1]; 1000 nM) was 1%. For the same compound, the inhibition at 0.01 µM ([2]; 10 nM) was -5%, the inhibition at 0.1 µM ([2]; 100 nM) was -4% and the inhibition at 1 µM ([2]; 1000 nM) was -8%. The inhibition at 0.01 µM ([3]; 10 nM) was 3%, the inhibition at 0.1 µM ([3]; 100 nM) was 6% and the inhibition at 1 µM ([3]; 1000 nM) was 11%.

— PMC11233931, “Remodeling tumor‐associated macrophage for anti‐cancer effects by rational design of irreversible inhibition of mitogen‐activated protein kinase‐activated protein kinase 2” (MedComm, 2024)
